In patent US20020037872A1, “N6 heterocyclic 5' modified adenosine derivatives” (CV Therapeutics, Inc., priority 1999, published 2002):

Experiments:
A1 receptor = target: T1, A1 receptor (Sus scrofa, UniProt I3LEN5); assay: Competitive binding assay, pig striatum membrane prep, [3H]CPX; conditions: [3H]CPX 2 nM, pig striatal membranes
T1 sequence (I3LEN5 1-326): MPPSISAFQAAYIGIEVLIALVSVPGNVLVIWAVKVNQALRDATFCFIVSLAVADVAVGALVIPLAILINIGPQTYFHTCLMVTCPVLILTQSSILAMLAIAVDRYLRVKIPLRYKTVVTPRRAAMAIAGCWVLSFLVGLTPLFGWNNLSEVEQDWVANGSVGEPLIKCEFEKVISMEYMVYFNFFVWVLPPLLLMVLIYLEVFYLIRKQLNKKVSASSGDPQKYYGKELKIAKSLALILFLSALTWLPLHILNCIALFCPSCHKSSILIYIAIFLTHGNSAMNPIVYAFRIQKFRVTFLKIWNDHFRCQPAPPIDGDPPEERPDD
Procedure: Competitive Binding Assay Pig striatum were prepared by homogenation in 50 mM Tris buffer (5× volume of tissue mass pH=7.4). After centrifilgation at 19,000 rpm for 25 minutes at 4° C., the supernatant was discarded, and the process was repeated twice. Compositions of this invention were assayed to determine their affinity for the A1 receptor in a pig striatum membrane prep or a DDT, membrane prep. Briefly, 0.2 mg of pig striatal membranes or DDT, cell membranes were treated with adenosine deaminase and 50 mM Tris buffer (pH=7.4) followed by mixing. To the pig membranes was added 2 μL of serially diluted DMSO stock solution of the compounds of this invention at concentrations ranging from 100 microM to 10 nM. The control received 2 microL of DMSO alone, then the antagonist [^3H] 8-cyclopentylxanthine (CPX) for pig striatum or the agonist [^3H] 2-chloro-6-cyclopentyladenosine (CCPA) for DDT, membranes in Tris buffer (50 mnM, pH of 7.4) was added to achieve a final concentration of 2 nM. After incubation at 23 C for 2 h, the solutions were filtered using a membrane harvester using multiple washing of the membranes (3×). The filter disks were counted in scintillation cocktail affording the amount of displacement of triated CPX or by the competitive binding compositions of this invention. […]

A2A AdoR = target: T2, A2A AdoR (Cavia porcellus, UniProt P46616); assay: Guinea pig isolated perfused heart: coronary vasodilation (coronary conductance); conditions: guinea pig isolated perfused hearts; read-out: EC50 to cause coronary vasodilation
T2 construct: from tissue; host or cells: guinea pig isolated perfused heart
T2 sequence (P46616 whole entry, the tested form may be a part): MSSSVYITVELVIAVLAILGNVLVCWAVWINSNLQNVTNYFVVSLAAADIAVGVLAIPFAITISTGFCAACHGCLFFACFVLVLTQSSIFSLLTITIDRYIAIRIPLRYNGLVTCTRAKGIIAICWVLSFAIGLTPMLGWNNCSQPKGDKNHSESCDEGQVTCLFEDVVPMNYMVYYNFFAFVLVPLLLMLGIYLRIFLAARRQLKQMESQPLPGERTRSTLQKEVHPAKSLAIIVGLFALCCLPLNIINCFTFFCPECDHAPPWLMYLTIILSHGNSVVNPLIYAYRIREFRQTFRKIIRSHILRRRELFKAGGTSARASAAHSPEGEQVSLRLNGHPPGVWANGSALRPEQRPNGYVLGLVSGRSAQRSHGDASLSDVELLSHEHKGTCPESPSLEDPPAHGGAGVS
Procedure: Guinea pigs of either sex weighing 250-300 g were anesthetized with methoxyflurane and killed by cervical dislocation. The hearts were quickly removed and rinsed in ice-cold Krebs-Henseleit solution. The aorta was cannulated and the heart retrogradely perfused at a constant flow of 10 ml min^−1 with modified Krebs-Henseleit solution containing (mM): NaCL 117.9, KCl 4.8, CaCl2 2.5, MgSO4 1.18, KH2PO4 1.2, Na2EDTA 0.5, ascorbic acid 0.14, glucose 5.5, pyruvic acid (sodium salt) 2.0, and NaHCO3 25. The K—H solution was oxygenated with 95% oxygen and 5% CO2, pH 7.4, and temperature maintained at 36° C.
Coronary perfusion pressure was measured using a pressure transducer that was connected to the aortic cannula via a T-connector. Coronary perfusion pressure (in mmHg) was monitored throughout an experiment and recorded on a 4-channel Gould strip-chart recorder (Gould RS3400, Cleveland, Ohio, U.S.A.). Coronary conductance (in ml min^−1 mmHg^−1) was calculated as the ratio of coronary perfusion rate (10 ml min^−1) and perfusion pressure (mmHg).

A1 adenosine receptor = target: T3, A1 adenosine receptor (Mesocricetus auratus, UniProt A0A1U8BVR4); assay: [35S]GTPγS binding assay, A1-agonist stimulated; format: biochemical, hamster; conditions: […], agonist stimulated [35S]GTPγS binding, CPA = 100%
T3 construct: endogenous in cells; host or cells: DDT1 (DDT1 MF-2) hamster vas deferens smooth muscle cells
T3 sequence (A0A1U8BVR4 1-326): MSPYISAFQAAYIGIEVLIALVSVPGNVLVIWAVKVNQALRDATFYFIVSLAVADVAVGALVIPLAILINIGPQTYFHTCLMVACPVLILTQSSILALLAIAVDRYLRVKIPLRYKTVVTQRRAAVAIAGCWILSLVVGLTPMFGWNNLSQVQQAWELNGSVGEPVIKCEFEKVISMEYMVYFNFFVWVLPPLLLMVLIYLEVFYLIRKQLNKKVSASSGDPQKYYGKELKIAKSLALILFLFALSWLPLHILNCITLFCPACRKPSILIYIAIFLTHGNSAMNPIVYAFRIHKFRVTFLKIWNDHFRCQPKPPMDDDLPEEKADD
How it was run: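 Membranes in 50 mM Tris-HCl pH 7.4, 5 mM MgCl2, 100 mM NaCl, 1 mM DTT used for A1-agonist-stimulated [35S]GTPγS binding, read by filtration. Nonspecific binding defined with 10 μM GTPγS. Saturation runs used 0.5 nM [35S]GTPγS with 0.5–1000 nM GTPγS.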

CNC(=O)OC[C@H]1O[C@@H](n2cnc3c(N[C@@H]4CCOC4)ncnc32)[C@H](O)[C@@H]1O [Compound 6, (5-16[((3R)oxolan-3-yl)aminolpurin-9-yl)(3S,2R,4R,5R)-3,4dihydroxyoxolan-2yl)methoxyl-N-methylearboxamide]
Ki (A1 receptor): 0.228 µM
EC50 (A2A AdoR): 31 ± 5.1 µM
Emax (A1 adenosine receptor): 48%
